This is an account of results in article PMC7385626 (Scientific Reports, 2020).

In general, IC50 refers to the concentration that inhibits the measured activity by half.

Several values for one entry are separate records, joined by “and”; a condition that tells them apart may be missing. Equal values may be shown once.

Series [1] deals with HeLa, HT29, C6 and Vero cells. In words: BrdU Cell Proliferation Assay, range over the cell lines. Type of series: cell-based. The conditions noted are these: BrdU assay. An excerpt: (§1) The antiproliferative activities of Ag(I) molecules and the starting molecules of the parent molecules, N-bishydeten and [Ag(CN)2]^− compound, on cells, were monitored utilizing by the BrdU Cell Proliferation Assay (BCPA) (Fig. 6).
(§2) The antiproliferative activity of the 2, 3, 4, [Ag(CN)2]^− and 5FU against various cell lines (HeLa ATCC CCL-2, C6 cells ATCC CCL-107, HT29 ATCC HTB-38, and Vero ATCC CCL-81) were preserved and maintained in Dulbecco’s modified eagle’s medium, supplemented with %2 antibiotic (Streptomycin-Penicillin) solution and 10% fetal bovine serum.
(§3) The cell suspension including 5×10^3 cells in 100 µL was supplied into the well cell plates (96-well cell). The therapies of these cells with 2, 3, 4 and [Ag(CN)2]^− in DMSO (max 0.1% DMSO) and 5-Florouracil (5 FU) molecule in DMSO (max 0.1% DMSO) separately at concentration 0.25, 0.50, 1.00, 1.50, 2.00, 2.50, 3.75, and 5.00 µg/mL were carried out. The last volume was adapted to 200 µL by mixture and DMEM and also incubated for 24 h at 37°C with 5% CO2. The antiproliferative activities of the 2, 3, 4 and [Ag(CN)2]^− were determined with using BrdU Cell proliferation ELISA Kit conforming to manufacturer’s assay.
(§4) IC50 values the concentration of a factor which required for other method of in vitro.
In general terms: Uptake of a labelled nucleoside into DNA is a usual measure of proliferation.

The test system of series [2] is Vero. Briefly: BrdU Cell Proliferation Assay (BCPA). The series is classed as cell-based. The note with it: BrdU ELISA, 24 h, normal cell line, mean ± SD of three experiments.
From the text: as §1, §2, §3, §4

Series [3] has as its system C6. Briefly: BrdU Cell Proliferation Assay (BCPA). Type of series: cell-based. The conditions noted are these: BrdU ELISA, 24 h, mean ± SD of three experiments.
From the text: as §1, §2, §3, §4

Series [4] concerns HeLa. Briefly: BrdU Cell Proliferation Assay (BCPA). The series is classed as cell-based. The conditions noted are these: BrdU ELISA, 24 h, mean ± SD of three experiments.
From the text: as §1, §2, §3, §4

Series [5] can be described thus: in vitro. The conditions noted are these: human (HT-29, HeLa), rat (C6), African green monkey (Vero). An excerpt: (§5) LDH activities were measurement at 492-630 nm using a microplate reader. The percentage cytotoxicity was find with using the equation, […], where experimental value is the test-molecule treated cells, and high control is Triton X-100 treated cells, and low standard or control (spontaneous LDH enzyme) is the untreated cells.

The test system of series [6] is HT29 cells. The conditions noted are these: human.
From the text: as §5

The subject of series [7] is HT29. In words: BrdU Cell Proliferation Assay (BCPA). Type of series: cell-based, human. The conditions noted are these: BrdU ELISA, 24 h, mean ± SD of three experiments.
From the text: as §1, §2, §3, §4

For series [8], the system named is CT-DNA. The note with it: literature comparison; ref [59],[60]; cited from earlier work.
For series [9], the target named is BSA (Bos taurus, UniProt P02769). Briefly: UV–Visible absorption titration, BSA binding constant. On the set-up: species or system Bovine. An excerpt:
UV–Visible absorption spectroscopy technique was also used to study interactions between BSA and 1–4. […] The some results of [BSA]/(εa − εf) = [BSA]/(εb − εf) + 1/[Kb(εb − εf)] in Fig. 9, used and also obtained. The binding constants for the 1–4 were found as 2.4 ± 0.22 × 10^4 M^−1, 4.3 ± 0.29 × 10^4 M^−1, 3.4 ± 0.23 × 10^4 M^−1 and 4.8 ± 0.29 × 10^4 M^−1, respectively. In Fig. 9, the increase in BSA concentrations leads to a change in the absorption of the complexes resulting in hypochromism for 1 and 3 and hyperchromism for 2 and 4.
To obtain the interaction act of the molecules with calf thymus DNA and also to determine the binding constants (Kb) UV–Visible absorption spectroscopy method was utilized. Indeed, 2.5 mg calf thymus DNA in this part was dissolved in Tris–HCl buffer and stabile pending seven days in the refrigerator. The concentration level of calf thymus DNA was calculated spectrophotometrically assay at 260 nm. This method was done according to previous studies.

Series [10] concerns E. coli 111. Briefly: Disc diffusion assay. Type of series: cell-based, Escherichia coli. How it is done:
(§6) Therefore, the pathogen bacterial flora and the opportunistic agents may be taken into consideration both in the management of cancer patients and in individual susceptibility to cancer. Indeed, dual acting factors with antimicrobial and antiproliferative potentials can result in improved therapeutic efficacy for cancer cell patients or reduced cancer predisposition. […]. In this study, 10 microbial cultures of this part, belonging to ten types of bacterial were used. The culture was grown in Mueller–Hinton Broth (Merck) for all the bacterial strains at 36 °C. Antimicrobial test was carried out by using disc-diffusion assay utilizing 100 µL of suspension with 10^8 CFU/mL of bacteria and 10^6 CFU/mL of yeast spread on Nutrient Agar and Potato Dextrose Agar, respectively. Also, the blank disc (Oxoid = 6 mm in diameter) was impregnated with 20 µL of each substance (105 µg/disc) and placed on the inoculated agar. Negative controls ([…]) were prepared using the same solvent (water) employed to dissolve each substance. […]. The inoculated plate was incubated at 36 °C for clinical bacterial strains. Antimicrobial activities were evaluated by obtaining the zone of inhibitory effect against the test organisms.
In general terms: Agar diffusion results depend on both activity and mobility in agar.

For series [11], the system named is E. coli 111. Briefly: Serial microdilution assay (MIC). The series is classed as cell-based, Escherichia coli. Here is the method:
(§7) […]. […] Four types of gram-positive bacterial strains (St. pyogenez, B. subtilis, B. cereus, S. aureus) and five types of the gram-negative (S. enteridis, E. aerogenes, P. aeruginosa, E. coli, and S. gallinarum) were sensitive to 4 and 1. […]. The minimal inhibitory concentration value was studied for the microorganism cells, which evaluated to sensitive the substances and they tested in the disc-diffusion method. Inoculate of microorganism was prepared utilizing 12 h suspensions and broth cultures were adjusted to 0.5 McFarland turbidity standard. Each substance was dissolved in 10% dimethyl sulfoxide which diluted to the highest concentration (1000 µg/mL) for testing. […]. Also, prepared suspensions for standard microorganisms were added to each dilution in a 1:1 ratio. Growth act of microorganism cells was determined visually after incubation at 36 °C. The minimum concentration was no visible growth which was taken as the MIC.

The subject of series [12] is B. subtilis ATCC6633. In words: Serial microdilution assay (MIC). The series is classed as cell-based, Bacillus Subtilis. How it is done: as §7
For series [13], the system named is E. aerogenes ATCC2924. In words: Serial microdilution assay (MIC). Type of series: cell-based, Enterobacter Aerogenes. Here is the method: as §7
(In general: Dilution methods test growth across graded concentrations, often in twofold steps.)

In series [14] the test system is S. enteridis ATCC13076. Briefly: Disc diffusion assay. The series is classed as cell-based, Salmonella Enteritidis. How it is done: as §6
The subject of series [15] is E. aerogenes 2924. In words: Disc diffusion assay. Type of series: cell-based, Enterobacter Aerogenes. Here is the method: as §6
The subject of series [16] is S. enteridis ATCC13076. In words: Serial microdilution assay (MIC). The series is classed as cell-based, Salmonella Enteritidis. Here is the method: as §7
Series [17] relates to S. aureus ATCC29213. In words: Serial microdilution assay (MIC). The series is classed as cell-based, Staphylococcus aureus. Here is the method:
as §7

For series [18], the system named is S. aureus ATCC29213. Briefly: Disc diffusion assay. The series is classed as cell-based, Staphylococcus aureus. How it is done: as §6
Series [19] deals with P. aeruginosa ATCC9027. In words: Serial microdilution assay (MIC). The series is classed as cell-based, Pseudomonas Aureginosa. How it is done: as §7
For series [20], the system named is St. pyogenez ATCC176. In words: Serial microdilution assay (MIC). The series is classed as cell-based, Steptococcus Pyogerez. How it is done: as §7
The subject of series [21] is bacterial strains (four gram-positive, five gram-negative). Briefly: Serial microdilution assay (MIC), range over the bacterial strains. The series is classed as cell-based. Here is the method: as §7
Series [22] concerns B. cereus DSM 4312. In words: Disc diffusion assay. Type of series: cell-based, Bacillus Cereus. How it is done:
as §6

The test system of series [23] is S. gallinarum. In words: Disc diffusion assay. Type of series: cell-based, Salmonella Gallinarum. Here is the method:
as §6

Series [24] has as its system B. subtilis ATCC6633. Briefly: Disc diffusion assay. Type of series: cell-based, Bacillus Subtilis. How it is done: as §6
Series [25] has as its system S. gallinarum. Briefly: Serial microdilution assay (MIC). The series is classed as cell-based, Salmonella Gallinarum. Here is the method: as §7
Series [26] deals with B. cereus DSM 4312. Briefly: Serial microdilution assay (MIC). Type of series: cell-based, Bacillus Cereus. Here is the method:
as §7

For series [27], the system named is St. pyogenez ATCC176. Briefly: Disc diffusion assay. The series is classed as cell-based, Steptococcus Pyogerez. How it is done: as §6

Turning to `NCCN(CCO)CCO` [N-bishydeten, N, N-bis (2-hydroxyethyl) -ethylenediamine, reference compound], in series [1] (same administrative dose, data not shown), the “antiproliferative effect (in words)” value is reported as “no antiproliferative effects”.

Regarding `O=c1[nH]cc(F)c(=O)[nH]1` [5FU, 5-fluorouracil, reference compound], the 50% inhibitory concentration (IC50) was determined as 258 ± 21 µM in series [2] (Chlorocebus sabaeus, Vero); 217 ± 19 µM in series [3] (Rattus norvegicus, C6); 276 ± 17 µM in series [4] (Homo sapiens, HeLa); 258 ± 21 µM in series [7] (Homo sapiens, HT-29). The compound also came in with a cytotoxicity in series [5] of 15 to 25%. Moreover, in [6], the “cytotoxicity against HT29 cells (LDH)” value is 9–11%. Also, the “binding constant with DNA (reported)” value in series [8] was 97000 M⁻¹.

With `N.N.[Cl][Pt][Cl]` [Cisplatin, cisplatin, reference compound], the IC50 in series [2] is 235 ± 19 µM; in series [3] it was 208 ± 23 µM; in [4], 230 ± 15 µM; in series [7], 153 ± 14 µM; in [1] (HeLa, HT29, C6, Vero), 153 to 235 µM.

With [Ni(N-bishydeten)Ag3(CN)5] [Complex 1], in series [9], the “binding constant with BSA” value was 2.4 ± 0.22 × 10^4 M^−1 and 2.4 x 10^4. In [10], the “inhibition zones, E. coli 111” value stood at 19 ± 0.58 mm. The “Minimum-inhibitory concentrations (MIC), E. coli 111” value in series [11] worked out at 62.50 ± 0.0 µg/mL. Besides, in series [12], the “Minimum-inhibitory concentrations (MIC), B. subtilis ATCC6633” value was 62.50 ± 0.0 µg/mL. In series [13], the “MIC, E. aerogenes” value is on record as 15.62 µg/mL and the “Minimum-inhibitory concentrations (MIC), E. aerogenes ATCC2924” value turned out to be 15.62 ± 0.0 µg/mL. Moreover, the “inhibition zones, S. enteridis ATCC13076” value in [14] worked out at 18 ± 0.58 mm. For the same compound, the “inhibition zones, E. aerogenes 2924” value in series [15] is 15 ± 1.0 mm. The “Minimum-inhibitory concentrations (MIC), S. enteridis ATCC13076” value in series [16] worked out at 62.50 ± 17.97 µg/mL. Further, in series [17], the “Minimum-inhibitory concentrations (MIC), S. aureus ATCC29213” value is 62.50 ± 36.08 µg/mL. Further, in series [18], the “inhibition zones, S. aureus ATCC29213” value came out at 18 ± 0.58 mm. In addition, the “Minimum-inhibitory concentrations (MIC), P. aeruginosa ATCC9027” value in [19] came to 62.50 ± 18.04 µg/mL. For the same compound, in series [20], the “MIC, St. pyogenez” value is 15.62 µg/mL and the “Minimum-inhibitory concentrations (MIC), St. pyogenez ATCC176” value is listed as 15.62 ± 9.02 µg/mL. Further, in [21], the “MIC, joint range for 4 and 1 over the strains” value lay in the range of 15.62 to 125 µg/mL. The “inhibition zones, B. cereus DSM 4312” value in series [22] stood at 20 ± 1.0 mm. Besides, the “inhibition zones, S. gallinarum” value in [23] was found to be 17 ± 0.58 mm. Moreover, the “inhibition zones, B. subtilis ATCC6633” value in series [24] is on record as 14 ± 1.53 mm. Moreover, in series [25], the “MIC, S. gallinarum” value was 31.25 µg/mL and the “Minimum-inhibitory concentrations (MIC), S. gallinarum” value was 31.25 ± 0.0 µg/mL. Also, the “Minimum-inhibitory concentrations (MIC), B. cereus DSM 4312” value in series [26] came out at 62.50 ± 18.04 µg/mL. For the same compound, the “inhibition zones, St. pyogenez ATCC176” value in series [27] is 15 ± 0.0 mm.
